The values that follow are results of earlier work, collected in patent US20070281983A1, “Creatine analog prodrugs, compositions and uses thereof” (XenoPort, Inc., priority 2006, published 2007).

Read-outs that look alike come from different tables or passages of the source.

Experiment in series [1]: not given
The source holds these as a separate data set.

For series [2] the following is noted: healthy volunteers, oral creatine administration.
For series [3] the following is noted: animals, diet containing up to 1% cyclocreatine.

On to `CN(CC(=O)O)C(=N)N.O` [creatine monohydrate], for which, for the setting “athletes and body builders, 2-3 gm/day”, the adverse side effects entry was “without adverse side effects”.

Consider `CN(CC(=O)O)C(=N)NP(=O)(O)O` [creatine phosphate], for which the adverse side effects result (patients with cardiac diseases, intravenous injection up to 8 gm/day) is given as “without adverse side effects”.

Take `CN(CC(=O)O)C(=N)N` [creatine, Creatine]: the “overall increase in creatine phosphate levels” value in series [1] (creatine supplementation, typically takes weeks) is given as less than 50%. The “duration of increases in tissue creatine phosphate levels” value in series [1] (following oral creatine supplementation) was greater than 14 days. Also, the “increase in cerebral creatine phosphate” value in series [2] is given as “about 10%”.

For the compound `NC1=NCCN1CC(=O)O` [cyclocreatine], in series [3], the adverse effects result was “do not exhibit adverse effects”.
